Data published in patent US7018989B2, “Chemical compounds” (University College Cardiff Consultants, LTD, priority 1995, dated 2006).
Structures can show the parent of a compound that is named as a salt. Where two headings read alike, the source gives them in different places.

How the values were obtained:
HIV-1 = test: microbe, parasite or virus in culture; details: read-out: HIV1 CEM: EC50 for inhibition of HIV-1 in CEM cells
Description: (§1) Cells were infected with HIV-1 as previously described [Balzarini et al. AIDS (1991), 5, 21–28]. Briefly, 5×10^5 cells per milliliter were infected with HIV-1 or HIV-2 at 100 CCID50 (50% cell culture infective dose) per milliliter of cell suspension. Then 100 μL of the infected cell suspension was transferred to microtiter plate wells and mixed with 100 μL of the appropriate dilutions of the test compounds. After 4 days giant cell formation was recorded microscopically in the HIV-infected cell cultures [CEM], and after 5 days the number of viable cells was determined by trypan blue staining of the HIV-infected cell cultures [MT4].
(§2) The data columns are, in order: • HIV1 MT4: EC50 in μM for inhibition of HIV-1 in MT4 cells. • HIV2 MT4: EC50 in μM for inhibition of HIV-2 in MT4 cells. • CC50 MT4: CC50 in μM for toxicity to MT-4 cells. • HIV1 CEM: EC50 in μM for inhibition of HIV-1 in CEM cells. • HIV2 CEM: EC50 in μM for inhibition of HIV-2 in CEM cells. • HIV2 CEM-TK-: EC50 in μM for inhibition of HIV-2 in CEM/TK^− cells. • CC50 CEM: CC50 in μM for toxicity to CEM cells. • EC50 MSV: EC50 in μM for inhibition of MSV • MCC MSV: Minimum cytotoxic concentration in MSV assay

HIV-2 [1] = test: Inhibition of HIV-2 in CEM cells (giant cell formation); type: cell-based; details: read-out: HIV2 CEM: EC50 for inhibition of HIV-2 in CEM cells
Description: as §1, §2

HIV-2 [2] = test: Inhibition of HIV-2 in CEM/TK- cells; type: cell-based
Description: as §1, §2

[3] = Table 6, mean of two or more repeat experiments
[4] = Table 6, mean of two or more repeat experiments, read-out: HIV2 CEM-TK-: EC50 for inhibition of HIV-2 in CEM/TK^− cells
[5] = CEM/TK- cells, HIV-2, read-out: HIV2 CEM-TK-: EC50 for inhibition of HIV-2 in CEM/TK- cells

| Compound | EC50 (HIV-1; [3]) | EC50 (HIV-2 [1]; [3]) | EC50 (HIV-2 [2]; [4]) | also measured |
| --- | --- | --- | --- | --- |
| CCCOP(=O)(OCC1C=CC(n2cc(C)c(=O)[nH]c2=O)O1)OCC(Cl)(Cl)Cl (stereo not drawn) [Compound 404] | > 209 µM | > 209 µM | > 209 µM | – |
| COC(=O)C[C@H](NP(=O)(OC[C@@H]1C=C[C@H](n2cc(C)c(=O)[nH]c2=O)O1)Oc1ccccc1)C(=O)OC (stereo partly drawn) [Compound 1214, 2′,3′-Dideoxy-2′,3′-didehydrothymidine-5′-(phenyldimethoxyasparaginyl) phosphoramidate] | 0.6 µM | – | – | – |
| COC(=O)C(Cc1c[nH]c2ccccc12)NP(=O)(OC[C@@H]1C=C[C@H](n2cc(C)c(=O)[nH]c2=O)O1)Oc1ccccc1 (stereo partly drawn) [Compound 1215, 2′,3′-Dideoxy-2′,3′-didehydrothymidine-5′-(phenylmethoxytryptophanyl) phosphoramidate] | 4 µM | – | – | – |
| [N-]=[N+]=NC1CC(n2ccc(=O)[nH]c2=O)OC1CO (stereo not drawn) [Cpd 569] | – | – | – | EC50 (HIV-1; CEM cells, HIV-1): > 400 µM; EC50 (HIV-2 [1]; CEM cells, HIV-2): > 400 µM; EC50 (HIV-2 [2]; [5]): > 400 µM |
| CCCCCCNP(=O)(OCC1OC(n2cc(C)c(=O)[nH]c2=O)CC1N=[N+]=[N-])Oc1ccccc1 (stereo not drawn) [Cpd 657] | – | – | – | EC50 (HIV-1; CEM cells, HIV-1): > 40 µM; EC50 (HIV-2 [1]; CEM cells, HIV-2): > 40 µM; EC50 (HIV-2 [2]; [5]): > 18 µM |
| Cc1cn([C@H]2C=C[C@@H](COP(=O)(O)NC(Cc3ccccc3)C(=O)O)O2)c(=O)[nH]c1=O (stereo partly drawn) [Compound 1187, 2′,3′-dideoxy-2′,3′-didehydrothymidine 5′-(phenylalaninyl phosphate)] | 3.5 µM | – | – | – |
| Cc1cn(C2C=CC(COP(=O)(O)NCCC(=O)O)O2)c(=O)[nH]c1=O (stereo not drawn) [Compound 1216, 2′,3′-Dideoxy-2′,3′-didehydrothymidine-5′-(β-alaninyl) phosphate ammonium salt] | 0.7 µM | – | – | – |
| Cc1cn(C2C=CC(COP(=O)(O)NC(CC(C)C)C(=O)O)O2)c(=O)[nH]c1=O (stereo not drawn) [Compound 1192, 2′,3′-dideoxy-2′,3′-didehydrothymidine 5′-(leucinyl phosphate)] | 1.4 µM | – | – | – |
| O=c1ccn(C2C=CC(COP(=O)(OCC(Cl)(Cl)Cl)OCC(Cl)(Cl)Cl)O2)c(=O)[nH]1 (stereo not drawn) [Compound 562] | > 36 µM | > 36 µM | > 36 µM | – |
| CCCCCCCCCCCCNP(=O)(OCC1OC(n2cc(C)c(=O)[nH]c2=O)CC1N=[N+]=[N-])Oc1ccccc1 (stereo not drawn) [Cpd 661] | – | – | – | EC50 (HIV-1; CEM cells, HIV-1): > 7 µM; EC50 (HIV-2 [1]; CEM cells, HIV-2): > 7 µM; EC50 (HIV-2 [2]; [5]): > 7 µM |
| COC(=O)C(C)NP(=O)(OCC1C=CC(n2ccc(=O)[nH]c2=O)O1)Oc1ccccc1 (stereo not drawn) [Compound 558] | > 44 µM | > 44 µM | > 44 µM | – |
| Cc1cn([C@H]2C=C[C@@H](COP(=O)(N[C@@H](C)C(=O)OCC(C)(C)C)Oc3ccccc3)O2)c(=O)[nH]c1=O (stereo partly drawn) [Compound 1219] | < 0.08 µM | – | – | – |
| Cc1cn(C2C=CC(COP(=O)(NC(C)C(=O)OCCc3ccccc3)Oc3ccccc3)O2)c(=O)[nH]c1=O (stereo not drawn) [Compound 1220] | 0.7 µM | – | – | – |
| COC(=O)C(C)NP(=O)(OCC1CCC(n2cc(C)c(=O)[nH]c2=O)O1)Oc1ccccc1 (stereo not drawn) [Cpd 1225] | – | – | – | EC50 (HIV-1; CEM cells, HIV-1): 1.2 µM |
| CCCNP(=O)(OCC1C=CC(n2cc(C)c(=O)[nH]c2=O)O1)OCC(Cl)(Cl)Cl (stereo not drawn) [Compound 401] | > 210 µM | > 210 µM | > 210 µM | – |
| Cc1cn(C2C=CC(COP(=O)(O)NC(C(=O)O)C(C)C)O2)c(=O)[nH]c1=O (stereo not drawn) [Compound 1190, 2′,3′-dideoxy-2′,3′-didehydrothymidine 5′-(valinyl phosphate)] | 0.7 µM | – | – | – |
| Cc1cn(C2C=CC(COP(=O)(NC(C)C(=O)Oc3ccc4ccccc4c3)Oc3ccccc3)O2)c(=O)[nH]c1=O (stereo not drawn) [Compound 1227] | < 0.08 µM | – | – | – |
| CCC(NP(=O)(OCC1C=CC(n2cc(C)c(=O)[nH]c2=O)O1)Oc1ccccc1)C(=O)OC (stereo not drawn) [Compound 1198, 2′,3′-Dideoxy-2′,3′-didehydrothymidine-5′-(phenylmethoxy-α-aminobutylryl) phosphate] | > 250 µM | – | – | – |
| Cc1cn(C2C=CC(COP(=O)(NC(C)C(=O)Oc3cccc4ccccc34)Oc3ccccc3)O2)c(=O)[nH]c1=O (stereo not drawn) [Compound 1226] | < 0.08 µM | – | – | – |
| CC[C@H](C)[C@H](NP(=O)(OCC1C=CC(n2cc(C)c(=O)[nH]c2=O)O1)Oc1ccccc1)C(=O)OC (stereo partly drawn) [Compound 1186, 2′,3′-dideoxy-2′,3′-didehydrothymidino 5′-(phenylmethoxyisoleucinyl phosphate)] | 5 µM | – | – | – |
| COC(=O)CCCCCNP(=O)(OCC1C=CC(n2cc(C)c(=O)[nH]c2=O)O1)Oc1ccccc1 (stereo not drawn) [Compound 1199, 2′,3′-Dideoxy-2′,3′-didehydrothymidine-5′-(phenylmethoxy-6-aminocaproyl) phosphate] | > 250 µM | – | – | – |

| Compound | EC50 (HIV-1; [3]) | EC50 (HIV-2 [1]; [3]) | EC50 (HIV-2 [2]; [4]) | also measured |
| --- | --- | --- | --- | --- |
| COC(=O)C(C)NP(=O)(OCC1OC(n2ccc(=O)[nH]c2=O)CC1N=[N+]=[N-])Oc1ccccc1 (stereo not drawn) [Cpd 571] | – | – | – | EC50 (HIV-1; CEM cells, HIV-1): > 202 µM; EC50 (HIV-2 [1]; CEM cells, HIV-2): > 202 µM; EC50 (HIV-2 [2]; [5]): 117 µM |
| CCCCCOC(=O)C(C)NP(=O)(OCC1C=CC(n2cc(C)c(=O)[nH]c2=O)O1)Oc1ccccc1 (stereo not drawn) [Compound 1218] | < 0.08 µM | – | – | – |
| CCCCNP(=O)(OCC1OC(n2cc(C)c(=O)[nH]c2=O)CC1N=[N+]=[N-])Oc1ccccc1 (stereo not drawn) [Cpd 659] | – | – | – | EC50 (HIV-1; CEM cells, HIV-1): > 42 µM; EC50 (HIV-2 [1]; CEM cells, HIV-2): > 42 µM; EC50 (HIV-2 [2]; [5]): > 42 µM |
| Cc1cn([C@H]2C=C[C@@H](COP(=O)(O)OC(=O)CCCN)O2)c(=O)[nH]c1=O [Compound 1224, 2′,3′-Dideoxy-2′,3′-didehydrothymidine-5′(γ-aminobutylryl) phosphate ammonium salt] | 1 µM | – | – | – |
| CCCNP(=O)(OCC)OCC1C=CC(n2cc(C)c(=O)[nH]c2=O)O1 (stereo not drawn) [Compound 563] | > 268 µM | > 268 µM | > 268 µM | – |
| COC(=O)C(C)(C)NP(=O)(OCC1C=CC(n2cc(C)c(=O)[nH]c2=O)O1)Oc1ccccc1 (stereo not drawn) [Compound 1200, 2′,3′-Dideoxy-2′,3′-didehydrothymidine-5′-(phenylmethoxy-2-aminoisobutylryl) phosphate] | 0.12 µM | – | – | – |
| Cc1cn([C@H]2C=C[C@@H](CO)O2)c(=O)[nH]c1=O [Compound 268, reference compound] | 0.24 µM | 1.2 µM | > 100 µM | – |
| CCCCNP(=O)(OCC1C=CC(n2cc(C)c(=O)[nH]c2=O)O1)OCC(F)(F)F (stereo not drawn) [Compound 504] | 73 µM | 116 µM | ≥ 226 µM | – |
| CCOP(=O)(OCC)OCC1C=CC(n2ccc(=O)[nH]c2=O)O1 (stereo not drawn) [Compound 551] | > 58 µM | > 58 µM | > 58 µM | – |
| COC(=O)CCC(NP(=O)(OCC1C=CC(n2cc(C)c(=O)[nH]c2=O)O1)Oc1ccccc1)C(=O)OC (stereo not drawn) [Compound 1196, 2′,3′-Dideoxy-2′,3′-didehydrothymidine-5′-(phenyldimethoxyglutaminyl phosphoramidate] | 1.2 µM | – | – | – |
| COC(=O)C(CCSC)NP(=O)(OCC1C=CC(n2cc(C)c(=O)[nH]c2=O)O1)OCC(Cl)(Cl)Cl (stereo not drawn) [Compound 345] | 8 µM | 11 µM | 10 µM | – |
| O=c1ccn([C@H]2C=C[C@@H](CO)O2)c(=O)[nH]1 [Compound 446, reference compound] | > 95 µM | > 95 µM | > 95 µM | – |
| Cc1cn(C2C=CC(COP(=O)(Oc3ccccc3)N3CCCC3C(=O)O)O2)c(=O)[nH]c1=O (stereo not drawn) [Compound 1194, 2′,3′-dideoxy-2′,3′-didehydrothymidine 5′-(phenylprolinyl phosphate)] | 6 µM | – | – | – |
| CCCCCC(=O)OP(=O)(O)OC[C@@H]1C=C[C@H](n2cc(C)c(=O)[nH]c2=O)O1 [Compound 1217, 2′,3′-Dideoxy-2′,3′-didehydrothymidine-5′-(caproyl) phosphate ammonium salt] | 1.4 µM | – | – | – |
| CCNP(=O)(OCC1C=CC(n2cc(C)c(=O)[nH]c2=O)O1)OCC(Cl)(Cl)Cl (stereo not drawn) [Compound 403] | > 216 µM | > 216 µM | > 218 µM | – |
| COC(=O)C(NP(=O)(OCC1C=CC(n2cc(C)c(=O)[nH]c2=O)O1)OCC(Cl)(Cl)Cl)C(C)C (stereo not drawn) [Compound 322] | 29 µM | 71 µM | 59 µM | – |
| CCCCNP(=O)(OCC1C=CC(n2cc(C)c(=O)[nH]c2=O)O1)OCC(Cl)(Cl)Cl (stereo not drawn) [Compound 402] | 118 µM | > 204 µM | 161 µM | – |
| COC(=O)CCNP(=O)(OCC1C=CC(n2cc(C)c(=O)[nH]c2=O)O1)Oc1ccccc1 (stereo not drawn) [Compound 1197, 2′,3′-Dideoxy-2′,3′-didhydrothymidine-5′-(phenylmethoxy-B-alaninyl) phosphate] | > 250 µM | – | – | – |
| COC(=O)C(C)NP(=O)(OCC1C=CC(n2ccc(=O)[nH]c2=O)O1)Oc1cccc(C(F)(F)F)c1 (stereo not drawn) [Compound 547] | > 3520 µM | > 7 µM | > 35 µM | – |
| Cc1cn(C2C=CC(COP(=O)(NC(C)C(=O)OCC3CCCCC3)Oc3ccccc3)O2)c(=O)[nH]c1=O (stereo not drawn) [Compound 1189] | 0.04 µM | – | – | – |
| Cc1cn(C2C=CC(COP(=O)(O)OCC(Cl)(Cl)Cl)O2)c(=O)[nH]c1=O (stereo not drawn) [Compound 407] | – | 0.5 µM | 86 µM | – |
